This note sets out measurements from patent publication US11578061B2, “Inhibitors of LRRK2 kinase” (Halia Therapeutics, Inc., priority 2021, dated 2023).

Sequence of recombinant human LRRK2 (catalytic domain only [amino acids 970-2527], GST-tagged) (Q5S007 970-2527): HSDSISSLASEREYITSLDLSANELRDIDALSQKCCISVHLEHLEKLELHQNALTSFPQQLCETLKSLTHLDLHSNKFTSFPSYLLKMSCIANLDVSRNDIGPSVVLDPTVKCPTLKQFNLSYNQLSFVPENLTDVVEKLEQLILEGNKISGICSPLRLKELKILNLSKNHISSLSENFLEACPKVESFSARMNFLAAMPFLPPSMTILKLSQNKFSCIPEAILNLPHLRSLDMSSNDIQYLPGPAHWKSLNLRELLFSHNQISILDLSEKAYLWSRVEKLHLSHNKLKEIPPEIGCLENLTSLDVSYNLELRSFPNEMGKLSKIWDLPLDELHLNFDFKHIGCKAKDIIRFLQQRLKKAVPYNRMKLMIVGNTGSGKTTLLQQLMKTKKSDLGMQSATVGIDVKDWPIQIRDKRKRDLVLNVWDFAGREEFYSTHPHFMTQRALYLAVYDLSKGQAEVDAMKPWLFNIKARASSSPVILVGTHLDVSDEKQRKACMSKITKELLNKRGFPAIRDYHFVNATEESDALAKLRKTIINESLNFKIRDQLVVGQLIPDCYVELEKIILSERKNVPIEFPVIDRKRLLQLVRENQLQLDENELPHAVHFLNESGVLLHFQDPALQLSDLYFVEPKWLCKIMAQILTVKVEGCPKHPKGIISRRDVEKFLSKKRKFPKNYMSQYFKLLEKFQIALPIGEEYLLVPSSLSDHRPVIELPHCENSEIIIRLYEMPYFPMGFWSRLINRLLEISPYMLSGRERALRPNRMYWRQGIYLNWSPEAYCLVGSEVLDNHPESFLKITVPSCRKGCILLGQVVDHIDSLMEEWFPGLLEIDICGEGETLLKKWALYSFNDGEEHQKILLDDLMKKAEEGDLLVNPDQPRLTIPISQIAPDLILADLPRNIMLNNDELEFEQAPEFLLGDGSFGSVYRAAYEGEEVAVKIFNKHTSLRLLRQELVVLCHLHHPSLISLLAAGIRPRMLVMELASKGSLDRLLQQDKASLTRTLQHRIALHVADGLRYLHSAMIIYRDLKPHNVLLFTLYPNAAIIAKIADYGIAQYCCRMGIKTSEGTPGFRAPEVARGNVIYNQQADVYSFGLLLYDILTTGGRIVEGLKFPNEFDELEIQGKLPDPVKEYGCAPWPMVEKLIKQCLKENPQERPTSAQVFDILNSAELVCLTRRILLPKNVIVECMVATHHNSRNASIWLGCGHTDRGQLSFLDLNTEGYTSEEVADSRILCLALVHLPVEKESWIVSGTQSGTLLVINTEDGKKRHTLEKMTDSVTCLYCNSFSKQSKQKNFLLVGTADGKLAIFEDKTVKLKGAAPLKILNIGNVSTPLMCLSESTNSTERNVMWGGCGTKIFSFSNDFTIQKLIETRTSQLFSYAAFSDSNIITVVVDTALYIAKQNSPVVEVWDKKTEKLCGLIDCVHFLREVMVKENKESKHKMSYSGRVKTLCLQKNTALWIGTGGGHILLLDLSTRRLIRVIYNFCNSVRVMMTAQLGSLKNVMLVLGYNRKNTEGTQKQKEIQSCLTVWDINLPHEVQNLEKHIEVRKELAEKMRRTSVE

The target in the assay is recombinant human LRRK2 (catalytic domain only [amino acids 970-2527], GST-tagged) (Homo sapiens (Human), UniProt Q5S007). Put plainly: LRRK2 Enzymatic Assay. Format: biochemical. Particulars: LRRKtide substrate, [32P]-ATP. The method, then:
LRRKtide substrate (peptide sequence RLGRDKYKTLRQIRQ, derived from human ezrin [amino acids 561-573], moesin [amino acids 539-553] and radixin [amino acids 558-570], obtained from SignalChem, catalogue #L10-58, reconstituted in 20 mM Tris-HCl at pH 7.5 to a final concentration of 1 mg/mL, assay concentration 20 μM) and recombinant human LRRK2 (catalytic domain only [amino acids 970-2527], GST-tagged, expressed in insect cells, obtained from ThermoFisher Scientific, catalogue #PV4874, 0.35 mg/mL, assay concentration 30 nM) were mixed in assay buffer (20 mM Hepes pH 7.5, 10 mM MgCl2, 1 mM EGTA, 0.02% Brij35, 0.02 mg/ml BSA, 0.1 mM Na3VO4, 2 mM DTT, 1% DMSO). Compounds of interest (in DMSO, serial 3-fold dilution from 10 μM to 0.5 nM) or control (1% DMSO) were dispensed into the kinase reaction mixture by Acoustic technology (Echo550; nanoliter range). After incubation at room temperature for 20 minutes, the kinase reaction was initiated by addition of [^32P]-ATP (Specific activity 10 μCi/μl) and the mixture was incubated at room temperature for 2 hours. The reaction was then stopped by spotting the reaction mixture on strips of phosphocellulose P81 paper. Following washing, the radioactivity of the P81 paper was measured and kinase activity data were expressed as the percent remaining kinase activity in test samples compared to vehicle (dimethyl sulfoxide) reactions. IC50 values and curve fits were obtained using Prism (GraphPad Software).
As to `N#CC1CCC(COc2nc(Nc3ccc(N4CCOCC4)cc3)ncc2F)CC1` (racemic) [Example 272, 4-(((5-fluoro-2-((4-morpholinophenyl)amino)pyrimidin-4-yl)oxy)methyl)cyclohexane-1-carbonitrile], the IC50 was less than 50 nM. With `C[C@@H]1CN(c2ccc(Nc3ncc(F)c(OCC4CCC(C#N)CC4)n3)cc2)C[C@H](C)O1` (mixture of isomers) [Example 273, 4-(((2-((4-((2S,6R)-2,6-dimethylmorpholino)phenyl)amino)-5-fluoropyrimidin-4-yl)oxy)methyl)cyclohexane-1-carbonitrile] the figure was less than 50 nM; with `Cc1nn(C(C)(C)C#N)cc1Nc1ncc(F)c(OCC2CCC(C#N)CC2)n1` (racemic) [Example 274, 4-(((2-((1-(2-cyanopropan-2-yl)-3-methyl-1H-pyrazol-4-yl)amino)-5-fluoropyrimidin-4-yl)oxy)methyl)cyclohexane-1-carbonitrile], less than 50 nM. For `CC(C)OC1CCC(COc2nc(Nc3ccc(N4CCOCC4)cc3)ncc2F)CC1` (racemic) [Example 278, 5-fluoro-4-((4-isopropoxycyclohexyl)methoxy)-N-(4-morpholinophenyl)pyrimidin-2-amine] the value was 50 to 200 nM. With `CC(C)OC1CCC(COc2nc(Nc3ccc(N4C[C@@H](C)O[C@@H](C)C4)cc3)ncc2F)CC1` (mixture of isomers) [Example 279, N-(4-((2S,6R)-2,6-dimethylmorpholino)phenyl)-5-fluoro-4-((4-isopropoxycyclohexyl)methoxy)pyrimidin-2-amine] the figure was 200 to 400 nM; with `Cc1nn(C(C)(C)C#N)cc1Nc1ncc(F)c(OCC2CCC(OC(C)C)CC2)n1` (racemic) [Example 280, 2-(4-((5-fluoro-4-((4-isopropoxycyclohexyl)methoxy)pyrimidin-2-yl)amino)-3-methyl-1H-pyrazol-1-yl)-2-methylpropanenitrile], 50 to 200 nM. For the compound `Cc1nn(C(C)(C)C#N)cc1Nc1ncc(F)c(OCC2CCC(OC(F)(F)F)CC2)n1` (racemic) [Example 284, 2-(4-((5-fluoro-4-((4-(trifluoromethoxy)cyclohexyl)methoxy)pyrimidin-2-yl)amino)-3-methyl-1H-pyrazol-1-yl)-2-methylpropanenitrile], the IC50 was in the range of 200 to 400 nM. With `C[C@@H]1CN(c2ccc(Nc3ncc(F)c(OCC4CCNCC4F)n3)cc2)C[C@H](C)O1` (single isomer, unassigned) [Example 168] the figure was 50 to 200 nM. For `C[C@@H]1CN(c2ccc(Nc3ncc(F)c(OCC4CCNCC4F)n3)cc2)C[C@H](C)O1` (single isomer, unassigned) [Example 169] the value was 50 to 200 nM; for `Cc1nn(C(C)(C)C#N)cc1Nc1ncc(F)c(OCC2CCNCC2F)n1` (single isomer, unassigned) [Example 170, 2-(4-((5-fluoro-4-((3-fluoropiperidin-4-yl)methoxy)pyrimidin-2-yl)amino)-3-methyl-1H-pyrazol-1-yl)-2-methylpropanenitrile], 50 to 200 nM. With `Cc1nn(C(C)(C)C#N)cc1Nc1ncc(F)c(OCC2CCNCC2F)n1` (single isomer, unassigned) [Example 171, 2-(4-((5-fluoro-4-((3-fluoropiperidin-4-yl)methoxy)pyrimidin-2-yl)amino)-3-methyl-1H-pyrazol-1-yl)-2-methylpropanenitrile] the figure was 200 to 400 nM; with `CC(=O)N1CCC(COc2nc(Nc3ccc(N4CCOCC4)cc3)ncc2F)C(F)C1` (single isomer, unassigned) [Example 172, 1-(3-fluoro-4-(((5-fluoro-2-((4-morpholinophenyl)amino)pyrimidin-4-yl)oxy)methyl)piper-idin-1-yl)ethan-1-one], 50 to 200 nM. In the case of `CC(=O)N1CCC(COc2nc(Nc3ccc(N4CCOCC4)cc3)ncc2F)C(F)C1` (single isomer, unassigned) [Example 173, 1-(3-fluoro-4-(((5-fluoro-2-((4-morpholinophenyl)amino)pyrimidin-4-yl)oxy)methyl)piper-idin-1-yl)ethan-1-one], the IC50 was less than 50 nM. For `CC(=O)N1CCC(COc2nc(Nc3ccc(N4C[C@@H](C)O[C@@H](C)C4)cc3)ncc2F)C(F)C1` (single isomer, unassigned) [Example 174] the value was 200 to 400 nM; for `CC(=O)N1CCC(COc2nc(Nc3ccc(N4C[C@@H](C)O[C@@H](C)C4)cc3)ncc2F)C(F)C1` (single isomer, unassigned) [Example 175], 200 to 400 nM. With `CC(=O)N1CCC(COc2nc(Nc3cn(C(C)(C)C#N)nc3C)ncc2F)C(F)C1` (single isomer, unassigned) [Example 176, 2-(4-((4-((1-acetyl-3-fluoropiperidin-4-yl)methoxy)-5-fluoropyrimidin-2-yl)amino)-3-methyl-1H-pyrazol-1-yl)-2-methylpropanenitrile] the figure was 200 to 400 nM.

Regarding `CC(=O)N1CCC(COc2nc(Nc3cn(C(C)(C)C#N)nc3C)ncc2F)C(F)C1` (single isomer, unassigned) [Example 177, 2-(4-((4-((1-acetyl-3-fluoropiperidin-4-yl)methoxy)-5-fluoropyrimidin-2-yl)amino)-3-methyl-1H-pyrazol-1-yl)-2-methylpropanenitrile], the IC50 was greater than 400 nM.

With `Cc1nn(C(C)(C)C#N)cc1Nc1ncc(F)c(OCC2CCCC(O)CC2)n1` (single isomer, unassigned) [Example 263, 2-(4-((5-fluoro-4-((4-hydroxycycloheptyl)methoxy)pyrimidin-2-yl)amino)-3-methyl-1H-pyrazol-1-yl)-2-methylpropanenitrile], the IC50 was less than 50 nM. In the case of `Fc1cnc(Nc2ccc(N3CCOCC3)cc2)nc1OCC1CCC(OC(F)(F)F)CC1` (single isomer, unassigned) [Example 281, 5-fluoro-N-(4-morpholinophenyl)-4-((4-(trifluoromethoxy)cyclohexyl)methoxy)pyrimidin-2-amine], the IC50 was greater than 400 nM. For `Fc1cnc(Nc2ccc(N3CCOCC3)cc2)nc1OCC1CCC(OC(F)(F)F)CC1` (single isomer, unassigned) [Example 282, 5-fluoro-N-(4-morpholinophenyl)-4-((4-(trifluoromethoxy)cyclohexyl)methoxy)pyrimidin-2-amine] the value was greater than 400 nM; for `Cc1nn(C(C)(C)C#N)cc1Nc1ncc(F)c(OCC2CC(C#N)C2)n1` (single isomer, unassigned) [Example 290, 3-(((2-((1-(2-cyanopropan-2-yl)-3-methyl-1H-pyrazol-4-yl)amino)-5-fluoropyrimidin-4-yl)oxy)methyl)cyclobutane-1-carbonitrile], less than 50 nM; for `Cc1nn(C(C)(C)C#N)cc1Nc1ncc(F)c(OCC2CC(C#N)C2)n1` (single isomer, unassigned) [Example 291, 3-(((2-((1-(2-cyanopropan-2-yl)-3-methyl-1H-pyrazol-4-yl)amino)-5-fluoropyrimidin-4-yl)oxy)methyl)cyclobutane-1-carbonitrile], less than 50 nM.

As for `N[C@H]1CC[C@@H](COc2ccnc(Nc3ccc(N4CCOCC4)cc3)n2)CC1` [Example 1, 4-(((1S,4S)-4-aminocyclohexyl)methoxy)-N-(4-morpholinophenyl) pyrimidin-2-amine], the IC50 was less than 50 nM. For `N[C@H]1CC[C@H](COc2ccnc(Nc3ccc(N4CCOCC4)cc3)n2)CC1` [Example 2, 4-(((1R,4R)-4-aminocyclohexyl)methoxy)-N-(4-morpholinophenyl) pyrimidin-2-amine] the value was less than 50 nM.
